Laboratory results from patent US5693672A, “3,4,5-substituted benzoylguanidines, process for their preparation, their use as a medicament or diagnostic and medicament containing them” (priority 1992, dated 1997).
Counter-ions that a name gives are not always drawn.

What was measured:
[1] = target: T1, Na^+ /H^+ exchanger of rabbit erythrocytes (Oryctolagus cuniculus, UniProt P23791); assay: Inhibition of the Na^+ /H^+ exchanger of rabbit erythrocytes (amiloride-sensitive Na^+ influx, flame photometry); type: cell-based, White New Zealand rabbits; settings: pH 7.4, 37° C.
T1 construct: endogenous in cells; host or cells: erythrocytes in blood from the ear arteries of cholesterol-fed White New Zealand rabbits
T1 sequence (P23791 whole entry): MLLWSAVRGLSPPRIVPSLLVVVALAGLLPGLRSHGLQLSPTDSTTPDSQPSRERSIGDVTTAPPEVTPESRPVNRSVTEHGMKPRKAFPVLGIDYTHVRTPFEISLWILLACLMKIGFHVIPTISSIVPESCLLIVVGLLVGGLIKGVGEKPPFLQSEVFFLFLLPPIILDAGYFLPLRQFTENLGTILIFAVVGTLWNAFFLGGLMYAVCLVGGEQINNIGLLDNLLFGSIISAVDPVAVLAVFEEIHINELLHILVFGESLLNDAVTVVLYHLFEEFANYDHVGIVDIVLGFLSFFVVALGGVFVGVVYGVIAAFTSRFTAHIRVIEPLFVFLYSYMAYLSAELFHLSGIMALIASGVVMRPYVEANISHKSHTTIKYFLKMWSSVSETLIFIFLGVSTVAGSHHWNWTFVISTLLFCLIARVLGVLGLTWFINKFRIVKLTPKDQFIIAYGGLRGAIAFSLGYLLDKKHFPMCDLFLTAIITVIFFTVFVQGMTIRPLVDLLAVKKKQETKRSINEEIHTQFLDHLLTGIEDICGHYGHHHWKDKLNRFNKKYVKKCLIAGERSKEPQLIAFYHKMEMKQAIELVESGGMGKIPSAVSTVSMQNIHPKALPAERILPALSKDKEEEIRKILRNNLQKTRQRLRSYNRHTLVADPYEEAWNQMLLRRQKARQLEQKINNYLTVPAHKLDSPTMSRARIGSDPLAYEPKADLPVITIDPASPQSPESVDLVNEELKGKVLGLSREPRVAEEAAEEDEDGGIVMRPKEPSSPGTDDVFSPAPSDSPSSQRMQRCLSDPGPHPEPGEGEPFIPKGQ
Text: Inhibitors of the Na^+ /H^+ exchanger of rabbit erythrocytes:
White New Zealand rabbits (Ivanovas) received a standard diet containing 2% cholesterol for six weeks in order to activate Na^+ /H^+ exchange and thus to be able to determine the Na^+ influx into the erythrocytes via Na^+ /H^+ exchange by flame photometry. The blood was taken from the ear arteries and rendered incoagulable by 25 IU/ml of potassium heparin. A part of each sample was used for the duplicate determination of the hematocrit by centrifugation. Aliquots of 100 μl in each case were used to measure the Na^+ starting content of the erythrocytes.
In order to determine the amiloride-sensitive sodium influx, 100 μl of each blood sample were incubated at pH 7.4 and 37° C. in 5 ml in each case of a hyperosmolar salt/sucrose medium (mmol/1:140 NaCl, 3 KCl, 150 sucrose, 0.1 ouabain, 20 tris(hydroxymethyl)aminomethane). The erythrocytes were then washed three times with ice-cold MgCl2 /ouabain solution (mmol/1:112 MgCl2, 0.1 ouabain) and hemolized in 2.0 ml of distilled water. The intracellular sodium content was determined by flame photometry.
The Na^+ net influx was calculated from the difference between sodium starting values and the sodium content of the erythrocytes after incubation. The amiloride-inhibitable sodium influx resulted from the difference between the sodium content of the erythrocytes after incubation with and without 3×10^-4 mol/l amiloride. The process was also carried out in this manner in the case of the compounds according to the invention.

cardiac arrhythmias = settings: in vivo; cited from earlier work
[2] = test system: artificially induced ventricular fibrillation; settings: rat hearts, isolated; cited from earlier work

CS(=O)(=O)c1cc(C(=O)N=C(N)N)ccc1-c1ccc2ccccc2c1 [Example 2, 3-Methylsulfonyl-4-(2-naphthyl)benzoylguanidine hydrochloride]
IC50 [1]: 500 nM

CS(=O)(=O)c1cc(C(=O)N=C(N)N)ccc1-c1cccc(-c2ccccc2)c1 [Example 3, 3-Methylsulfonyl-4-(3-biphenyl)benzoylguanidine hydrochloride]
IC50 [1]: > 1000 nM

CS(=O)(=O)c1cc(C(=O)N=C(N)N)ccc1C1CCCCC1 [Example 5, 4-Cyclohexyl-3-methylsulfonylbenzoylguanidine hydrochloride]
IC50 [1]: 1700 nM

CS(=O)(=O)c1cc(C(=O)N=C(N)N)ccc1-c1ccccn1 [Example 6, 3-Methylsulfonyl-4-(2'-pyridyl)benzoylguanidine hydrochloride]
IC50 [1]: > 1000 nM

CS(=O)(=O)c1cc(C(=O)N=C(N)N)ccc1C#Cc1ccccc1 [Example 7, 3-Methylsulfonyl-4-[(2'-phenyl)ethynyl]benzoylguanidine hydrochloride]
IC50 [1]: 200 nM

CS(=O)(=O)c1cc(C(=O)N=C(N)N)ccc1CCc1ccccc1 [Example 9, 3-Methylsulfonyl-4-phenylethylbenzoylguanidine hydrochloride]
IC50 [1]: 900 nM

CS(=O)(=O)c1cc(C(=O)N=C(N)N)ccc1C1CCCC1 [Example 10, 4-Cyclopentyl-3-methylsulfonylbenzoylguanidine hydrochloride]
IC50 [1]: 100 nM

CS(=O)(=O)c1cc(C(=O)N=C(N)N)cc(C2CCCC2)c1 [Example 13, 3-Cyclopentyl-5-methylsulfonylbenzoylguanidine hydrochloride]
IC50 [1]: 3000 nM

NC(N)=NC(=O)c1nc(Cl)c(N)nc1N [amiloride]
accompanying side effects (cardiac arrhythmias): hypotensive and saluretic action | antiarrhythmic effect (cardiac arrhythmias): only slightly pronounced | suppression of artificially induced ventricular fibrillation [2]: suppressed completely

CCN(c1nc(N)c(C(=O)N=C(N)N)nc1Cl)C(C)C [ethylisopropylamiloride, Ethylisopropylamiloride]
potency relative to amiloride in the ventricular fibrillation model [2]: even more potent than amiloride
